This note sets out measurements from US6596687B1, “Cell adhesion inhibitors” (Biogen, Inc., priority 1995, dated 2003).

A word on the IC50: it is the point on the concentration scale where inhibition reaches its midpoint.

Numbered stars: 1 amine (or outer) side, 2 acyl side, 3 side chain; on linkers, the order of the positions; unused ones are H or OH. Square brackets hold non-standard residues; d marks the D form. Peptide text beside a SMILES is read from it. * marks the point of attachment. X2 = O=C(Cc1ccc(N[*:1])cc1)[*:2]; NH(2-Me-phenyl) = Cc1ccccc1N*; Piperidide = C1CCN(*)CC1; NHcHex = C1CCC(N*)CC1; CO = O=C([*:1])[*:2]; NHBn = c1ccc(CN*)cc1; NHPh = c1ccc(N*)cc1; X4 = c1ccc(N*)nc1; NHiPr = CC(C)N*

The assay has as its target T1, VLA4 (Homo sapiens, UniProt P05556+P13612).
T1 construct: endogenous in cells; host or cells: Ramos cells
The experiment in a line: Inhibition of VLA4-dependent adhesion of Ramos cells to BSA-CS1. The format is cell-based. The settings on record: Ramos cells, BSA-CS1 coated wells, 2 mM MnCl2, 30 minutes at room temperature; read-out: IC50. In a few lines:
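BCECF-AM-labelled Ramos cells in Tris buffer pH 7.4 with 2 mM MnCl2 were added with compound to wells coated with BSA-conjugated Cys-Tyr-CS1 peptide (1 μg/mL). Cells and compound were incubated for 30 min at room temperature, in triplicate. Inhibition was quantified from bound fluorescence against no-compound controls, with uncoated wells used for nonspecific binding.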

T1 sequence (P13612 34-1032): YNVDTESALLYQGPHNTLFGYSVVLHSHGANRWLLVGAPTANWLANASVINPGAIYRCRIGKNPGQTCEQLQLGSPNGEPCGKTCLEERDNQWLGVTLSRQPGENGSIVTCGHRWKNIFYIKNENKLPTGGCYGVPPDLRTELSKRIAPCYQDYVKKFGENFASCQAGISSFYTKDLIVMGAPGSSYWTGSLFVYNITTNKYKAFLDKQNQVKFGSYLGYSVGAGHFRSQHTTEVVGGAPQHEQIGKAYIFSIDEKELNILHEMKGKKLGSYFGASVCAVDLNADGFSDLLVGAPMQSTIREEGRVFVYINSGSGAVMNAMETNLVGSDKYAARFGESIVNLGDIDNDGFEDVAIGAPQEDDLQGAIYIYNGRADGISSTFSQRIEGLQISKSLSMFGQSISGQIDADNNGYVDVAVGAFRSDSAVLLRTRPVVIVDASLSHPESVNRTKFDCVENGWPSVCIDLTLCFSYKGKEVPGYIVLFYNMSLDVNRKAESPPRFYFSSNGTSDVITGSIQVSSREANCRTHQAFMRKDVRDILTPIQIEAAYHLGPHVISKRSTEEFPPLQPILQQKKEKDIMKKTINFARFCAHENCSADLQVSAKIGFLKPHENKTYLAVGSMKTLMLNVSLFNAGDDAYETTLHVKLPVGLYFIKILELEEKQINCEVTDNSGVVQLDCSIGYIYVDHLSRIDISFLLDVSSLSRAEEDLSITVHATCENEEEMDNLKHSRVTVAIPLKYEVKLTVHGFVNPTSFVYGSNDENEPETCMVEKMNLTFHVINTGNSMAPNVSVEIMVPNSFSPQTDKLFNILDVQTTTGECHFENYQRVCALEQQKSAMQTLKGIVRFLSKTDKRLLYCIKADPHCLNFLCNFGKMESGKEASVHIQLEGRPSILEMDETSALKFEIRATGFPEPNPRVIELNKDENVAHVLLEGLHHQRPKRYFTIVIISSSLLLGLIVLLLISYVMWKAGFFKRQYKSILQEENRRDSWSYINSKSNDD
T1 sequence (P05556 21-798): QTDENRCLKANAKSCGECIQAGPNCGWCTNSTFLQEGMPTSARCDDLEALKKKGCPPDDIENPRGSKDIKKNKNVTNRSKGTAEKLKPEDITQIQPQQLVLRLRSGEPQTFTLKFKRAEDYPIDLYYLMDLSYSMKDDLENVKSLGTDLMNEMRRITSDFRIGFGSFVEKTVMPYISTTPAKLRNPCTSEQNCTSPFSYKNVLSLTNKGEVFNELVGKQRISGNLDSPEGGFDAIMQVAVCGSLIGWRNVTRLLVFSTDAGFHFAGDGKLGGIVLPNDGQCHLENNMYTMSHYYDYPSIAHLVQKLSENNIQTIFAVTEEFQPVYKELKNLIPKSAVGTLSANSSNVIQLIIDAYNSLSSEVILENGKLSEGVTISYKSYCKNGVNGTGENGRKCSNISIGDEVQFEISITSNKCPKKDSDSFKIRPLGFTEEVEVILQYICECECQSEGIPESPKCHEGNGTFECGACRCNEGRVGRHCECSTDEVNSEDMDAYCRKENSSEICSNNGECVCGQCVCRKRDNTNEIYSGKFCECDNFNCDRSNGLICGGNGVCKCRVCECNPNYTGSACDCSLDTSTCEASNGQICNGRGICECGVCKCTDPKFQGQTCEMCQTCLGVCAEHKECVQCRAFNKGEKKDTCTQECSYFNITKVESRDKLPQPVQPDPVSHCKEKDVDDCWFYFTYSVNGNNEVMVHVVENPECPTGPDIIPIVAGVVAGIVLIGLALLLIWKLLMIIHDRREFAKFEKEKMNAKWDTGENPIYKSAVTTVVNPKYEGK

`CC(C)C[C@H](NC(=O)Cc1ccc(NC(=O)Nc2ccccc2)cc1)C(=O)N[C@@H](CC(=O)O)C(=O)N1CCOCC1` [Compound 214]: the IC50 lay in the range of 0.05 to 10 µM.

`CC(C)C[C@H](NC(=O)Cc1ccc(NC(=O)Nc2ccccc2)cc1)C(=O)N[C@@H](CC(=O)O)C(=O)NC(C)C` [Compound 215]: the IC50 is 0.05 to 10 µM.

For `CC(C)CC(NC(=O)Cc1ccc(NC(=O)Nc2ccccc2)cc1)C(=O)NC(CC(=O)O)C(=O)NC1CCCCC1` (centres unmarked) [Compound 216], the IC50 was 0.05 to 10 µM.

Take `CC(C)CNC(=O)[C@H](CC(=O)O)NC(=O)[C@H](CC(C)C)NC(=O)Cc1ccc(NC(=O)Nc2ccccc2)cc1` [Compound 217]: the concentration for half-maximal inhibition (IC50) is 0.05 to 10 µM.

For `CC(C)C[C@H](NC(=O)Cc1ccc(NC(=O)Nc2ccccc2)cc1)C(=O)N[C@@H](CC(=O)O)C(=O)N1CCCCC1` [Compound 218], the IC50 was in the range of 0.05 to 10 µM.

Take `CSCC[C@H](NC(=O)Cc1ccc(NC(=O)Nc2ccccc2C)cc1)C(=O)N[C@@H](CC(=O)O)C(=O)N[C@H](C(N)=O)C(C)C` [Compound 221]: the IC50 is below 0.05 µM.

`CSCC[C@H](NC(=O)[C@H](CC(=O)O)NC(=O)[C@H](CCSC)NC(=O)Cc1ccc(NC(=O)Nc2ccccc2C)cc1)C(N)=O` [Compound 225]: the IC50 is below 0.05 µM.

Take `Cc1ccccc1NC(=O)Nc1ccc(CC(=O)N[C@@H](CC(C)C)C(=O)N[C@@H](CC(=O)O)C(=O)N[C@H](C(N)=O)[C@@H](C)O)cc1` [Compound 235]: the IC50 is below 0.05 µM.

On to `Cc1ccccc1NC(=O)Nc1ccc(CC(=O)N[C@@H](CC(C)C)C(=O)N[C@@H](CC(=O)O)C(=O)N[C@@H](Cc2c[nH]c3ccccc23)C(N)=O)cc1` [Compound 239], for which the IC50 was below 0.05 µM.

As to `CC[C@H](C)[C@H](NC(=O)[C@H](CC(=O)O)NC(=O)[C@@H]1CCCN1C(=O)Cc1ccc(NC(=O)Nc2ccccc2C)cc1)C(N)=O` [Compound 244], the IC50 was below 0.05 µM.

`CSCC[C@H](NC(=O)[C@H](CC(=O)O)NC(=O)[C@@H]1CCCN1C(=O)Cc1ccc(NC(=O)Nc2ccccc2C)cc1)C(N)=O` [Compound 247]: the concentration for half-maximal inhibition (IC50) was below 0.05 µM.

`Cc1ccccc1NC(=O)Nc1ccc(CC(=O)N[C@H](C(=O)N[C@@H](CC(=O)O)C(=O)N[C@@H](CC(=O)O)C(N)=O)[C@@H](C)O)cc1` [Compound 252]: the concentration for half-maximal inhibition (IC50) was below 0.05 µM.

With `Cc1ccccc1NC(=O)Nc1ccc(CC(=O)N[C@H](C(=O)N[C@@H](CC(=O)O)C(=O)N[C@@H](CC(C)C)C(N)=O)[C@@H](C)O)cc1` [Compound 253], the IC50 is below 0.05 µM.

Consider `CC[C@H](C)[C@H](NC(=O)[C@H](CC(=O)O)NC(=O)[C@@H](NC(=O)Cc1ccc(NC(=O)Nc2ccccc2C)cc1)[C@@H](C)O)C(N)=O` [Compound 255], for which the half-inhibitory concentration (IC50) is below 0.05 µM.

`Cc1ccccc1NC(=O)Nc1ccc(CC(=O)N[C@@H](CCC(=O)O)C(=O)N[C@@H](CC(=O)O)C(=O)N[C@@H](CC(=O)O)C(N)=O)cc1` [Compound 263]: the IC50 is below 0.05 µM.

Regarding `Cc1ccccc1NC(=O)Nc1ccc(CC(=O)N[C@@H](CO)C(=O)N[C@@H](CC(=O)O)C(=O)N[C@@H](CC(C)C)C(N)=O)cc1` [Compound 276], the half-inhibitory concentration (IC50) is below 0.05 µM.

For `Cc1ccccc1NC(=O)Nc1ccc(CC(=O)N[C@@H](CO)C(=O)N[C@@H](CC(=O)O)C(=O)N[C@@H](CCC(=O)O)C(N)=O)cc1` [Compound 279], the IC50 is below 0.05 µM.

On to `CC[C@H](C)[C@H](NC(=O)Cc1ccc(NC(=O)Nc2ccccc2C)cc1)C(=O)N[C@@H](CC(=O)O)C(=O)N[C@@H](CC(=O)O)C(N)=O` [Compound 286], for which the IC50 was below 0.05 µM.

For `CC[C@H](C)[C@H](NC(=O)Cc1ccc(NC(=O)Nc2ccccc2C)cc1)C(=O)N[C@@H](CC(=O)O)C(=O)N[C@@H](CCC(=O)O)C(N)=O` [Compound 290], the IC50 was below 0.05 µM.

Take `CC[C@H](C)[C@H](NC(=O)[C@H](CC(=O)O)NC(=O)[C@H](CCC(N)=O)NC(=O)Cc1ccc(NC(=O)Nc2ccccc2C)cc1)C(N)=O` [Compound 300]: the IC50 was below 0.05 µM.

For `CSCC[C@H](NC(=O)[C@H](CC(=O)O)NC(=O)[C@H](CCC(N)=O)NC(=O)Cc1ccc(NC(=O)Nc2ccccc2C)cc1)C(N)=O` [Compound 303], the half-maximal inhibitory concentration (IC50) is below 0.05 µM.

With `Cc1ccccc1NC(=O)Nc1ccc(CC(=O)N[C@@H](CC(C)C)C(=O)N[C@@H](CCC(=O)O)C(=O)N[C@@H](CC(=O)O)C(N)=O)cc1` [Compound 310], the concentration for half-maximal inhibition (IC50) was below 0.05 µM.

`Cc1ccccc1NC(=O)Nc1ccc(CC(=O)N[C@@H](CC(C)C)C(=O)N[C@@H](CCC(=O)O)C(=O)N[C@H](C(N)=O)C(C)C)cc1` [Compound 311]: the IC50 was below 0.05 µM.

As for `Cc1ccccc1NC(=O)Nc1ccc(CC(=O)N2CCC[C@H]2C(=O)N[C@@H](CCC(=O)O)C(=O)N[C@H](C(N)=O)C(C)C)cc1` [Compound 313], the IC50 was below 0.05 µM.

Turning to `CSCC[C@H](NC(=O)Cc1ccc(NC(=O)Nc2ccccc2C)cc1)C(=O)N[C@@H](CC(=O)O)C(=O)N[C@H](C(=O)N1CCC[C@H]1C(=O)O)C(C)C` [Compound 315] ({NH(2-Me-phenyl)-CO}-[X2]MDVP-OH), the IC50 is below 0.05 µM.

For `CC(C)C[C@H](NC(=O)Cc1ccc(NC(=O)Nc2ccccn2)cc1)C(=O)N[C@@H](CC(=O)O)C(=O)N[C@H](C(=O)N1CCC[C@H]1C(=O)O)C(C)C` [Compound 316] ({X4-CO}-[X2]LDVP-OH), the IC50 was below 0.05 µM.

Turning to `CC(C)C[C@H](NC(=O)Cc1ccc(NC(=O)Nc2ccccc2)cc1)C(=O)N[C@@H](CC(=O)O)C(=O)N[C@H](C(=O)N1CCOCC1)C(C)C` [Compound 318], the IC50 is below 0.05 µM.

With `CC(C)C[C@H](NC(=O)Cc1ccc(NC(=O)Nc2ccccc2)cc1)C(=O)N[C@@H](CC(=O)O)C(=O)N[C@H](C(=O)NC(C)C)C(C)C` [Compound 319], the concentration for half-maximal inhibition (IC50) was in the range of 0.05 to 10 µM.

For `CC(C)C[C@H](NC(=O)Cc1ccc(NC(=O)Nc2ccccc2)cc1)C(=O)N[C@@H](CC(=O)O)C(=O)N[C@H](C(=O)NC1CCCCC1)C(C)C` [Compound 320], the 50% inhibitory concentration (IC50) lay in the range of 0.05 to 10 µM.

For the molecule `CC(C)C[C@H](NC(=O)Cc1ccc(NC(=O)Nc2ccccc2)cc1)C(=O)N[C@@H](CC(=O)O)C(=O)N[C@H](C(=O)NCc1ccccc1)C(C)C` [Compound 321], the IC50 lay in the range of 0.05 to 10 µM.

`CC(C)C[C@H](NC(=O)Cc1ccc(NC(=O)Nc2ccccc2)cc1)C(=O)N[C@@H](CC(=O)O)C(=O)N[C@H](C(=O)N1CCCCC1)C(C)C` [Compound 322]: the IC50 is below 0.05 µM.

On to `CC(C)C[C@H](NC(=O)Cc1ccc(NC(=O)Nc2ccccc2)cc1)C(=O)N[C@@H](CC(=O)O)C(=O)N[C@H](C(=O)N1CCC[C@H]1C(=O)NC1CCCCC1)C(C)C` [Compound 324] ({NHPh-CO}-[X2]LDVP-NHcHex), for which the IC50 lay within 0.05 to 10 µM.

On to `CC(C)C[C@H](NC(=O)Cc1ccc(NC(=O)Nc2ccccc2)cc1)C(=O)N[C@@H](CC(=O)O)C(=O)N[C@H](C(=O)N1CCC[C@H]1C(=O)N1CCCCC1)C(C)C` [Compound 325] ({NHPh-CO}-[X2]LDVP-Piperidide), for which the IC50 lay in the range of 0.05 to 10 µM.

Regarding `CC(C)C[C@H](NC(=O)Cc1ccc(NC(=O)Nc2ccccc2)cc1)C(=O)N[C@@H](CC(=O)O)C(=O)N[C@H](C(=O)N1CCC[C@H]1C(=O)NCc1ccccc1)C(C)C` [Compound 326] ({NHPh-CO}-[X2]LDVP-NHBn), the half-inhibitory concentration (IC50) is below 0.05 µM.

With `CC(C)C[C@H](NC(=O)Cc1ccc(NC(=O)Nc2ccccc2)cc1)C(=O)N[C@@H](CC(=O)O)C(=O)N[C@H](C(=O)N1CCC[C@H]1C(=O)NC(C)C)C(C)C` [Compound 327] ({NHPh-CO}-[X2]LDVP-NHiPr), the IC50 is below 0.05 µM.
